# How the values were obtained:
# [1] = system: MCMV (Smith strain); assay: MCMV infection of BALB/c mice; type: in vivo, mouse; conditions: after infection, 10 mg/kg twice daily for 5 days
# Description: Animal work was carried out in strict accordance with the recommendations in the Guide for the Care and Use of Laboratory Animals of the National Institutes of Health. The animal protocol (number MO13M296) was approved by the Institutional Animal Care and Use Committee (IACUC) of Johns Hopkins University. For infection experiments 3-4 week old BALB/c mice were purchased from Harlan Laboratories (Indianapolis, Ind.). […] IMMUNOL. 980-86 (2011)) or saline intraperitoneally. Blood was collected 4 h after the second dose of iE-DAP for measurement of RANTES by ELISA (R&D Biosystems, Minneapolis, Minn.). Mice were infected with 10^6 PFU tissue culture derived MCMV (Smith strain, ATCC, VR-1399) and scarified after 14 days. Intracardiac blood was collected prior to sacrifice for gB real-time PCR assay (Vliegen et al., 98(1) VIRUS RES. 17-25 (2003)). Salivary glands, liver and spleen were harvested and stored at −80° C. Organs were homogenized in DMEM at a final concentration of 100 mg/mL Two million mouse embryonic fibroblast (MEFs) were seeded into 24-well plates. From each sample, 2.5% of the salivary gland or 10% of liver/spleen homogenate was used for infection of MEFs in triplicates. Plaques were counted after three days.
# At 14 days' post infection mice were scarified, intracardiac blood was collected and tissue homogenates were prepared for plaque assays.
# [2] = system: HIV-1; conditions: acutely infected monocyte-derived macrophages and dendritic cells; cited from earlier work
# [3] = system: pp28-luciferase Towne strain; assay: pp28-luciferase HCMV replication assay (first and second cycle); type: cell-based, human cytomegalovirus
# Description: Human Foreskin Fibroblasts (HFFs) passage 12-16 (ATCC, CRL-2088™) were grown in Dulbecco's Modified Eagle Medium (DMEM) containing 10% fetal bovine serum (FBS) (Gibco, Carlsbad, Calif.) in a 5% CO2 incubator at 37° C. The generation of NOD2-KD HFFs (HFF-shNOD2) and control cells (HFF-GIPZ) was reported. One day prior to infection or treatment, 8×10^4 cells were seeded into each well of 12-well tissue culture plates. Multiplicities of infection were specified for each experiment. The Towne HCMV strain was obtained from ATCC (VR-977). The pp28-luciferase Towne strain which expresses luciferase under the control of the pp28 late promoter has been described. Luciferase activity was measured at 72 or 96 hours post infection (hpi) using the Glomax-Multi+ Detection System (Promega, Madison, Wis.). In second cycle replication assays cell free supernatants from HFFs infected with pp28-luciferase Towne were collected 4 days post completion of first replication cycle (5-10% of total volume/well), and used for infection of fresh HFFs seeded into 12-well plates. Cell lysates were collected after 72 h for luciferase activity. Supernatants from the first cycle were also used to measure virus titer in 12-well plates and plaques were counted at day 8 post infection. A purified preparation of the pp28-luciferase Towne strain was prepared by ultracentrifugation using sucrose gradient. The HCMV TB40 strain was obtained from ATCC (VR-1578). Clinical isolates of HCMV were obtained from the microbiology laboratory at Johns Hopkins Hospital with no identifiers that could be linked to a patient. The Johns Hopkins School of Medicine Office of Human Subject Research Institutional Review Board (IRB-X) determined that the research qualified for an exemption.
smiles,measurement,setting,value
Nc1nc(O)c2ncn(COC(CO)CO)c2n1 [Ganciclovir],MCMV inhibition,[1],inhibited MCMV
"CCCCOC(=O)[C@@H](CCC(N)=O)NC(=O)[C@H](C)NC(=O)[C@@H](C)O[C@H]1[C@H](O)[C@@H](CO)OC(O)[C@@H]1NC(C)=O (stereo partly shown) [MB, murabutide]",HIV-1 replication,[2],significantly inhibits HIV-1 replication
"C[C@H](N)C(=O)N[C@H](CCC(=O)NC(CCCC(N)C(=O)O)C(=O)O)C(=O)O (stereo partly drawn) [Tri-DAP, L-Ala-γ-D-Glu-meso-diamino-pimelic acid]","CMV inhibition (luciferase, protein expression, plaques)","[3]; Tri-DAP 10 μg/mL after infection, 72 hpi",results in CMV inhibition
same,CMV replication,"[3]; Tri-DAP 10 μg/mL pretreatment 18 or 72 h, MOI 1",inhibits CMV replication
